# Molecular target: T1, human CCR10 (Homo sapiens, UniProt P46092)
# T1 construct: expressed in transfected cells; host or cells: KJMGER8 cells (Namalwa cell-derived line), beta-estradiol-induced; hCCR10G16 cells
# T1 sequence (P46092 1-362): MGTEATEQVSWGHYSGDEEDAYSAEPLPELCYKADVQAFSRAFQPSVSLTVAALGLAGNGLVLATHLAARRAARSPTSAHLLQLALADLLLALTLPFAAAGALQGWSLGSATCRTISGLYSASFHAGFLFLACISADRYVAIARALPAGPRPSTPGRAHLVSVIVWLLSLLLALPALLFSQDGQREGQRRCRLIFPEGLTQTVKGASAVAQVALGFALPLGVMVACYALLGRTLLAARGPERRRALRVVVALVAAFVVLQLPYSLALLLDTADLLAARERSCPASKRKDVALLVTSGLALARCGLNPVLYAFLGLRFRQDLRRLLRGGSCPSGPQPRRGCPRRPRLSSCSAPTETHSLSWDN
# Assay: CCR10 antagonistic effect: calcium assay of human CCR10 (CTACK-induced increase of intracellular calcium in hCCR10G16 cells)
# Type: cell-based
# Details: at a concentration of not more than 1000 nmol/L; human CCR10-expressing hCCR10G16 cells, 300 nmol/L CTACK added; read-out: inhibition of increase in the calcium ion concentration
# Outline: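 KJMGER8-derived hCCR10G16 cells (CCR10 plus Gα16, induced 24 h with 10 nmol/L β-estradiol), Fluo-3 loaded, preincubated with compound 30 min at 37 °C. Stimulated with CTACK (300 nmol/L solution before addition); calcium read ~5 min by FDSS, max−min fluorescence; % inhibition vs control.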
row,Structure (SMILES),inhibition at up to 1 µM [%]
1,"Cc1cc(NS(=O)(=O)c2ncc(C(=O)N3CCC(c4ccc(F)cc4)CC3)c(Nc3ccc(F)cc3C)c2C)sn1 [Compound 266, 4-(4-fluoro-2-methylphenylamino)-5-[4-(4-fluorophenyl)piperidine-1-carbonyl]-3-methyl-N-(3-methylisothiazol-5-yl)pyridine-2-sulfonamide]",≥ 50
2,"Cc1cc(NS(=O)(=O)c2ncc(C(=O)N3CCC(c4ccc(F)cc4)CC3)c(Nc3cccc(F)c3)c2C)sn1 [Compound 267, 5-[4-(4-fluorophenyl)piperidine-1-carbonyl]-4-(3-fluorophenylamino)-3-methyl-N-(3-methylisothiazol-5-yl)pyridine-2-sulfonamide]",≥ 50
3,"COc1ccc(F)c(Nc2c(C(=O)N3CCC(c4ccc(F)cc4)CC3)cnc(S(=O)(=O)Nc3ccon3)c2C)c1 [Compound 268, 4-(2-fluoro-5-methoxyphenylamino)-5-[4-(4-fluorophenyl)piperidine-1-carbonyl]-N-(isoxazol-3-yl)-3-methylpyridine-2-sulfonamide]",≥ 50
4,"COc1cc(Nc2c(C(=O)N3CCC(c4ccc(F)cc4)CC3)cnc(S(=O)(=O)Nc3ccon3)c2C)ccc1F [Compound 269, 4-(4-fluoro-3-methoxyphenylamino)-5-[4-(4-fluorophenyl)piperidine-1-carbonyl]-N-(isoxazol-3-yl)-3-methylpyridine-2-sulfonamide]",≥ 50
5,"Cc1c(S(=O)(=O)Nc2ccon2)ncc(C(=O)N2CCC(c3ccc(F)cc3)CC2)c1Nc1ccc(Cl)cc1F [Compound 270, 4-(4-chloro-2-fluorophenylamino)-5-[4-(4-fluorophenyl)piperidine-1-carbonyl]-N-(isoxazol-3-yl)-3-methylpyridine-2-sulfonamide]",≥ 50
6,"Cc1c(S(=O)(=O)Nc2ccon2)ncc(C(=O)N2CCC(c3ccc(F)cc3)CC2)c1Nc1cc(Cl)ccc1F [Compound 271, 4-(5-chloro-2-fluorophenylamino)-5-[4-(4-fluorophenyl)piperidine-1-carbonyl]-N-(isoxazol-3-yl)-3-methylpyridine-2-sulfonamide]",≥ 50
7,"Cc1c(S(=O)(=O)Nc2ccon2)ncc(C(=O)N2CCC(c3ccc(F)cc3)CC2)c1Nc1cccc(F)c1Cl [Compound 272, 4-(2-chloro-3-fluorophenylamino)-5-[4-(4-fluorophenyl)piperidine-1-carbonyl]-N-(isoxazol-3-yl)-3-methylpyridine-2-sulfonamide]",≥ 50
8,"Cc1c(S(=O)(=O)Nc2ccon2)ncc(C(=O)N2CCC(c3ccc(F)cc3)CC2)c1Nc1ccc(F)cc1Cl [Compound 273, 4-(2-chloro-4-fluorophenylamino)-5-[4-(4-fluorophenyl)piperidine-1-carbonyl]-N-(isoxazol-3-yl)-3-methylpyridine-2-sulfonamide]",≥ 50
9,"Cc1c(S(=O)(=O)Nc2ccon2)ncc(C(=O)N2CCC(c3ccc(F)cc3)CC2)c1Nc1cc(F)ccc1Cl [Compound 274, 4-(2-chloro-5-fluorophenylamino)-5-[4-(4-fluorophenyl)piperidine-1-carbonyl]-N-(isoxazol-3-yl)-3-methylpyridine-2-sulfonamide]",≥ 50
10,"Cc1c(S(=O)(=O)Nc2ccon2)ncc(C(=O)N2CCC(c3ccc(F)cc3)CC2)c1Nc1cc(F)cc(F)c1F [Compound 275, 5-[4-(4-fluorophenyl)piperidine-1-carbonyl]-N-(isoxazol-3-yl)-3-methyl-4-(2,3,5-trifluorophenylamino)pyridine-2-sulfonamide]",≥ 50
11,"Cc1cccc(Nc2c(C(=O)N3CCC(c4ccc(F)cc4)CC3)cnc(S(=O)(=O)Nc3cc(C)ns3)c2C)c1 [Compound 276, 5-[4-(4-fluorophenyl)piperidine-1-carbonyl]-3-methyl-N-(3-methylisothiazol-5-yl)-4-(m-tolylamino)pyridine-2-sulfonamide]",≥ 50
12,"Cc1cc(NS(=O)(=O)c2ncc(C(=O)N3CCC(c4ccc(F)cc4)CC3)c(Nc3ccccc3)c2C)sn1 [Compound 277, 5-[4-(4-fluorophenyl)piperidine-1-carbonyl]-3-methyl-N-(3-methylisothiazol-5-yl)-4-(phenylamino)pyridine-2-sulfonamide]",≥ 50
13,"NS(=O)(=O)c1ncc(C(=O)N2CCN(c3ccc(F)cc3)C(=O)C2)c(NC2(c3ccccc3)CC2)c1Cl [Compound 278, 3-chloro-5-[4-(4-fluorophenyl)-3-oxopiperazine-1-carbonyl]-4-(1-phenylcyclopropylamino)pyridine-2-sulfonamide]",≥ 50
14,"Cc1c(S(=O)(=O)Nc2ccon2)ncc(C(=O)N2CCC(c3ccc(F)cc3)CC2)c1Nc1ccc(Cl)c(Cl)c1 [Compound 279, 4-(3,4-dichlorophenylamino)-5-[4-(4-fluorophenyl)piperidine-1-carbonyl]-N-(isoxazol-3-yl)-3-methylpyridine-2-sulfonamide]",≥ 50
15,"Cc1c(S(=O)(=O)Nc2ccon2)ncc(C(=O)N2CCC(c3ccc(F)cc3)CC2)c1Nc1ccc(Cl)cc1Cl [Compound 280, 4-(2,4-dichlorophenylamino)-5-[4-(4-fluorophenyl)piperidine-1-carbonyl]-N-(isoxazol-3-yl)-3-methylpyridine-2-sulfonamide]",≥ 50
16,"Cc1c(S(=O)(=O)Nc2ccon2)ncc(C(=O)N2CCC(c3ccc(F)cc3)CC2)c1Nc1cc(Cl)ccc1Cl [Compound 281, 4-(2,5-dichlorophenylamino)-5-[4-(4-fluorophenyl)piperidine-1-carbonyl]-N-(isoxazol-3-yl)-3-methylpyridine-2-sulfonamide]",≥ 50
17,"CN(Nc1c(C(=O)N2CCC(c3ccc(F)cc3)CC2)cnc(S(N)(=O)=O)c1Cl)c1ccccc1 [Compound 282, 3-chloro-5-[4-(4-fluorophenyl)piperidine-1-carbonyl]-4-(2-methyl-2-phenylhydrazinyl)pyridine-2-sulfonamide]",≥ 50
18,"NS(=O)(=O)c1ncc(C(=O)N2CC(c3ccc(F)cc3)C2)c(Nc2cccc(Cl)c2)c1Cl [Compound 283, 3-chloro-4-(3-chlorophenylamino)-5-[3-(4-fluorophenyl)azetidine-1-carbonyl]pyridine-2-sulfonamide]",≥ 50
19,"Cc1c(S(N)(=O)=O)ncc(C(=O)N2CC(c3ccc(F)cc3)C2)c1NCc1ccccc1 [Compound 284, 4-(benzylamino)-5-[3-(4-fluorophenyl)azetidine-1-carbonyl]-3-methylpyridine-2-sulfonamide]",≥ 50
20,"Cc1c(S(N)(=O)=O)ncc(C(=O)N2CC(c3ccc(F)cc3)C2)c1Nc1cccc(Cl)c1 [Compound 285, 4-(3-chlorophenylamino)-5-[3-(4-fluorophenyl)azetidine-1-carbonyl]-3-methylpyridine-2-sulfonamide]",≥ 50
21,"CCc1c(S(=O)(=O)Nc2ccon2)ncc(C(=O)N2CCC(c3ccc(F)cc3)CC2)c1Nc1ccccc1C [Compound 287, 3-ethyl-5-[4-(4-fluorophenyl)piperidine-1-carbonyl]-N-(isoxazol-3-yl)-4-(o-tolylamino)pyridine-2-sulfonamide]",≥ 50
22,"N#Cc1ccc(C#N)c(Nc2c(C(=O)N3CCC(c4ccc(F)cc4)CC3)cnc(S(N)(=O)=O)c2Cl)c1 [Compound 288, 3-chloro-4-(2,5-dicyanophenylamino)-5-[4-(4-fluorophenyl)piperidine-1-carbonyl]pyridine-2-sulfonamide]",≥ 50
23,"Cc1ccc(Oc2c(C(=O)N3CCC(c4ccc(F)cc4)CC3)cnc(S(N)(=O)=O)c2C)cc1 [Compound 289, 5-[4-(4-fluorophenyl)piperidine-1-carbonyl]-3-methyl-4-(p-tolyloxy)pyridine-2-sulfonamide]",≥ 50
24,"N#Cc1ccc(Cl)cc1Nc1c(C(=O)N2CCC(c3ccc(F)cc3)CC2)cnc(S(N)(=O)=O)c1Cl [Compound 290, 3-chloro-4-(5-chloro-2-cyanophenylamino)-5-[4-(4-fluorophenyl)piperidine-1-carbonyl]pyridine-2-sulfonamide]",≥ 50
25,"Cc1ccccc1Nc1c(C(=O)N2CC(c3ccc(F)cc3)C2)cnc(S(=O)(=O)Nc2ccon2)c1C [Compound 292, 5-[3-(4-fluorophenyl)azetidine-1-carbonyl]-N-(isoxazol-3-yl)-3-methyl-4-(o-tolylamino)pyridine-2-sulfonamide]",≥ 50
26,"CCc1c(S(=O)(=O)Nc2ccon2)ncc(C(=O)N2CCC(c3ccc(F)cc3)CC2)c1Nc1cccc(F)c1C [Compound 294, 3-ethyl-4-(3-fluoro-2-methylphenylamino)-5-[4-(4-fluorophenyl)piperidine-1-carbonyl]-N-(isoxazol-3-yl)pyridine-2-sulfonamide]",≥ 50
27,"COC1(c2ccc(F)cc2)CCN(C(=O)c2cnc(S(N)(=O)=O)c(Cl)c2NC2(c3ccccc3)CC2)CC1 [Compound 295, 3-chloro-5-[4-(4-fluorophenyl)-4-methoxypiperidine-1-carbonyl]-4-(1-phenylcyclopropylamino)pyridine-2-sulfonamide]",≥ 50

# Reference: US9701689B2, “Substituted pyridines and pyridazines as CCR10 receptor inhibitors” (KYOWA HAKKO KIRIN CO., LTD., priority 2012, dated 2017)
